According to US20250281508A1, “CATIONIC STEROIDAL ANTIMICROBIAL SALTS” (BRIGHAM YOUNG UNIVERSITY, priority 2015, published 2025):

How the values were obtained:
[1] = Coating stability (sluff off) of silicone coatings on medical devices immersed in water; format: physicochemical
Description: (§1) In a second comparative test, medical devices made from various substrate materials (i.e., stainless steel, titanium, and silicone) were coated with silicone coatings containing either di-NDSA salts of CSA compounds (i.e., CSA-13 and/or CSA-131) or HCl acid addition salts of the same CSA compounds, and then tested for long-term stability when immersed in water. Coating stability was determined by measuring how fast the coatings began to sluff off from the medical device.

[2] = Stability of CSA-13 salts: purity under various conditions; format: physicochemical
Description: Approximately 300 mg of CSA-13 was weighed into a scintillation vial. 6 mL of tetrohydrofuran was added to the vial. Hydrochloric acid (2 equivalents) was then added to the vial. […] Solids were isolated and dried at ambient temperature prior to analysis.

[3] = Coating stability (sluff off) of polyurethane coatings on medical devices immersed in water; format: physicochemical
Description: as §1, with “a first” for “a second”, “with polyurethane” for “with silicone”, “device. The NDSA salts are di-addition salts.” for “device.”

[4] = Reactivity with ethylene oxide (EtO) in polyurethane coating, by mass spectroscopy; format: physicochemical; conditions: ETT with polyurethane coating sterilized multiple times with EtO
Source text: In a seventh comparative test, the elution rate and antibacterial activity of polyurethane coatings containing either the di-NDSA salt of a representative CSA compound (i.e., CSA-131) or the HCl acid addition salt of the same CSA compound following sterilization with ethylene oxide (EtO) were compared, and also the tendency of the acid addition salt of the CSA compound to react with the EtO.
For EtO reactivity with the HCl acid addition salt of CSA-131, the following percentages of CSA-131 and CSA-131-EtO adducts were observed via mass spectroscopy following EtO treatment of a medical device with a polyurethane coating containing the HCl acid addition salt of CSA-131.
(§2) Moreover, elution of CSA-131 from the ETT with the same polyurethane coating containing the di-NDSA of CSA-131 remained relatively consistent for 96 hours, providing continuous activity against biofilms. This is shown by the data in Table 25.

[5] = Rate of elution of CSA from silicone coatings immersed in water; format: physicochemical
Source text: (§3) In a fourth comparative test, medical devices made from various substrate materials (i.e., stainless steel, titanium, and silicone) were coated with silicone coatings containing either a di-NDSA salt of a representative CSA compound (i.e., CSA-131) or the HCl acid addition salt of the same CSA compound, and then tested to determine the rate of elution of the CSA compound from the coated medical device when immersed in water.

[6] = Dynamic vapor sorption (DVS) analysis, XRPD before and after; format: physicochemical
Source text: FIG. 9 provides an overlay of the XRPD spectrum pre- and post-DVS analysis.

[7] = Elution of CSA-131 from polyurethane coating following EtO sterilization; format: physicochemical; conditions: for % of Total μg on OD: total CSA-131 content on OD 3976 μg; for Eluted Amount in μg/cm^3: total OD surface area 99.4 cm^2; for Average Amount Eluted: ETT polyurethane coating
Description: as §2, with “The elution rate of CSA-131 from the same polyurethane coating containing the HCl acid addition salt of CSA-131 (with solution exchange every 24 hours) is shown in Table 24: […] Moreover,” for “Moreover,”

[8] = Rate of elution of CSA from polyurethane coatings immersed in water; format: physicochemical
Source text: as §3, with “a third” for “a fourth”, “with polyurethane” for “with silicone”

[9] = Rate of elution of CSA from impregnated PLGA copolymer devices immersed in water; format: physicochemical; conditions: impregnated PLGA copolymer device
Source text: In a fifth comparative test, medical devices were made from PLGA copolymer impregnated with either a di-NDSA salt of a representative CSA compound (i.e., CSA-131) or the HCl acid addition salt of the same CSA compound, and then tested to determine the rate of elution of the CSA compound from the medical device when immersed in water.

[10] = Solvent solubility test (solvent addition technique); format: physicochemical
Description: (§4) Solubility values were estimated by a solvent addition technique, based on the following protocol: CSA-13 (20 mg) was weighed and individually distributed to 24 vials. Each solvent was added to the appropriate vial in 10 aliquots of 10 μL, 5 aliquots of 20 μL, 3 aliquots of 100 μL, and 1 aliquot of 500 μL. If complete dissolution was observed, the additions were stopped. Between additions, the sample was stirred to further encourage dissolution. If […] of solvent was added without dissolution, the solubility was calculated to be below this point. Polarized light microscopy analysis was performed on solids obtained from acetonitrile, 1,4-dioxane, ethyl acetate, isopropanol, and THF.
A solubility screen was performed as described above for the sulphate salt of CSA-13.
as §4, with “CSA-44” for “CSA-13”, “from acetone,” for “from”, “1,4-dioxane, ethanol,” for “1,4-dioxane,”, “acetate,” for “acetate, isopropanol,”, “methanol.” for “THF.”

[11] = silicone coating on Stainless Steel
[12] = polyurethane coating on Silicone
[13] = polyurethane coating on Stainless Steel
[14] = polyurethane coating on Titanium

## CCCCCCCCNCCCC(C)C1CCC2C3C(OCCCN)CC4CC(OCCCN)CCC4(C)C3CC(OCCCN)C12C.O=S(=O)(O)c1cccc2c(S(=O)(=O)O)cccc12.O=S(=O)(O)c1cccc2c(S(=O)(=O)O)cccc12 (stereo not shown) [CSA-13 NDSA]
[1]; silicone coating on Silicone
  Sluff Off Time: None after 30+ days
[1]; [11]
  Sluff Off Time: None after 30+ days
[1]; silicone coating on Titanium
  Sluff Off Time: None after 30+ days
[2]; 40° C./75% RH
  Purity (%): 97.93%
[2]; 80° C.
  Purity (%): 98.16%
[2]; Ambient light
  Purity (%): 98.57%
[2]; Starting Purity
  Purity (%): 98.52%
[3]; [12]
  Sluff Off Time: None after 30+ days
[3]; [13]
  Sluff Off Time: None after 30+ days
[3]; [14]
  Sluff Off Time: None after 30+ days

## CCCCCCCCCCCCNCCCC(C)C1CCC2C3C(OCCCN)CC4CC(OC(=O)CCN)CCC4(C)C3CC(OCCCN)C12C.O=S(=O)(O)c1cccc2c(S(=O)(=O)O)cccc12.O=S(=O)(O)c1cccc2c(S(=O)(=O)O)cccc12 (stereo not shown) [CSA-131 NDSA]
[1]; silicone coating on Silicone
  Sluff Off Time: None after 30+ days
[1]; [11]
  Sluff Off Time: None after 30+ days
[1]; silicone coating on Titanium
  Sluff Off Time: None after 30+ days
ethanol
  Solubility in Ethanol: <0.05 mg/mL
water
  Solubility in Water: <0.02 mg/mL
[4]
  EtO adducts observed by mass spectroscopy: no EtO adducts were observed
[3]; [12]
  Sluff Off Time: None after 30+ days
[3]; [13]
  Sluff Off Time: None after 30+ days
[3]; [14]
  Sluff Off Time: None after 30+ days
[5]; silicone coating on Silicone
  Time for 50% of CSA to elute: >7 days
[5]; [11]
  Time for 50% of CSA to elute: >7 days
[5]; silicone coating on Titanium
  Time for 50% of CSA to elute: >7 days
[6]; XRPD after DVS analysis (FIG. 8, 9)
  Effect of DVS analysis on crystallinity: did not significantly impact crystallinity
[6]; dynamic vapor sorption isotherm (FIG. 7)
  DVS hysteresis: minimal hysteresis
[7]; 0-24 hours
  % of Total μg on OD: 2.37%
  Eluted Amount in μg/cm^3: 0.95 μg/cm^2
[7]; 24-48 hours
  % of Total μg on OD: 2.14%
  Eluted Amount in μg/cm^3: 0.85 μg/cm^2
[7]; 48-72 hours
  % of Total μg on OD: 1.63%
  Eluted Amount in μg/cm^3: 0.65 μg/cm^2
[7]; 72-96 hours
  % of Total μg on OD: 2.01%
  Eluted Amount in μg/cm^3: 0.81 μg/cm^2
[7]; Total over 0-96 hours
  Average Amount Eluted: 324 µg
  % of Total μg on OD: 8.15%
  Eluted Amount in μg/cm^3: 3.26 μg/cm^2
[7]; time interval 0-24 hours
  Average Amount Eluted: 94.3 µg
[7]; time interval 24-48 hours
  Average Amount Eluted: 84.9 µg
[7]; time interval 48-72 hours
  Average Amount Eluted: 64.9 µg
[7]; time interval 72-96 hours
  Average Amount Eluted: 80.1 µg
[8]; [12]
  Time for 50% of CSA to elute: >7 days
[8]; [13]
  Time for 50% of CSA to elute: >7 days
[8]; [14]
  Time for 50% of CSA to elute: >7 days
[9]
  Time for 50% of CSA to elute: >7 days

## CCCCCCCCNCCCC(C)C1CCC2C3C(OCCCN)CC4CC(OCCCN)CCC4(C)C3CC(OCCCN)C12C.O=S(=O)(O)O (stereo not shown) [sulphate salt of CSA-13]
[2]; 40° C./75% RH
  Purity (%): 97.50%
[2]; 80° C.
  Purity (%): 97.96%
[2]; Ambient light
  Purity (%): 99.76%
[2]; Starting Purity
  Purity (%): 99.34%
[10]; solvent 1,4-dioxane
  Approximate Solubility at 22° C.: <11.3 mg/mL
[10]; solvent 1-butanol
  Approximate Solubility at 22° C.: >37.7 mg/mL
[10]; solvent 2-propanol
  Approximate Solubility at 22° C.: >20.9 mg/mL
[10]; solvent Acetone
  Approximate Solubility at 22° C.: <10.5 mg/mL
[10]; solvent Acetonitrile
  Approximate Solubility at 22° C.: <10.4 mg/mL
[10]; solvent Dichloromethane
  Approximate Solubility at 22° C.: >193.9 mg/mL
[10]; solvent Ethanol
  Approximate Solubility at 22° C.: >98.4 mg/mL
[10]; solvent Methanol
  Approximate Solubility at 22° C.: >199.7 mg/mL
[10]; solvent TBME
  Approximate Solubility at 22° C.: <10.1 mg/mL
[10]; solvent Tetrahydrofuran
  Approximate Solubility at 22° C.: <11.0 mg/mL
[10]; solvent Toluene
  Approximate Solubility at 22° C.: >102.8 mg/mL
